Source: US20240293430A1, “WITHAFERIN A AND IMMUNE CHECKPOINT BLOCKER COMBINATION THERAPIES” (University of South Florida, priority 2023, published 2024)
Like-named read-outs stand apart in the source and are kept apart here.

Key:
[1] = tested on: WFA-induced PD-L1 upregulation in NSCLC cells; test: Pharmacologic inhibitors added to WFA, PD-L1 by flow cytometry; type: cell-based, mouse (LLC), human (H1650, A549)
[2] = tested on: WFA-mediated PD-L1 and ecto-CRT increase in NSCLC cell lines; test: ROS scavenger added to WFA, PD-L1 and ecto-CRT, NSCLC; type: cell-based, mouse (LLC), human (H1650, A549); settings: 24 h; for effect on WFA-mediated PD-L1 increase: WFA + 5 mM scavenger, flow cytometry and qRT-PCR (NAC), flow cytometry (GSH)
Procedure: NSCLC cell lines were treated with WFA (0.6 μM in LLC, H1650 cells, 4 μM in A549 cells), or a combination of WFA+5 mM NAC for 24 h. (FIGS. 4A, 4D, 4G) The change in ROS levels were measured in LLC (FIG. 4A), H1650 (FIG. 4D), and A549 (FIG. G). (FIGS. 4B, 4E, 4H) by flow cytometry. The change in PD-L1 levels was measured in LLC (FIG. 4B), H1650 (FIG. 4E), and A549 (FIG. 4H) cell lines using flow cytometry and qRT-PCR. (FIG. 4C, 4F, 4I) Ecto-CRT levels were measured in LLC (FIG. 4C), H1650 (FIG. 4F), and A549 (FIG. 41) by flow cytometry. Means of two independent experiments ±SEM are shown, except for the PCR experiments that were repeated twice and for which one representative experiment is shown. Statistical significance was calculated using one-way ANOVA and a Fisher LSD post hoc test where * is p<0.05, ** is p<0.01,*** is p<0.001, and **** is p<0.0001.
All cells were treated with 0.6 μM WFA except A549, 4t1 and MDA-MB-231 cells which were treated with 4 μM, 1 μM, 2 μM WFA, respectively. […] PCR experiments were repeated twice, and one representative experiment is shown as mean±SEM of 3 technical replicates. Flow cytometry experiments were performed twice and the mean±SEM of two representative experiments is shown. Treatments were compared to the control using one-way ANOVA and Fisher LSD post hoc test. * p<0.05, ** p<0.01, *** p<0.001, **** p<0.0001.
To test our hypothesis, we treated NSCLC cell lines with WFA, NAC, or a combination of both.

[3] = tested on: PD-L1 upregulation in MC-38, HCT-116, 4T-1, and MDA-MB-231 cell lines; test: PD-L1 with WFA and NAC in colorectal and breast cancer cell lines; type: cell-based, mouse (MC-38, 4T1), human (HCT-116; settings: 5 mM NAC; MC-38, HCT-116, 4T-1, MDA-MB-231
[4] = tested on: ROS levels in NSCLC cell lines; test: ROS levels with ROS indicator CM-H2DCFDA; type: cell-based, mouse (LLC), human (H1650; settings: 24 h; WFA 0.6 μM (LLC, H1650), 4 μM (A549); NAC 5 mM

O=[N+]([O-])c1ccc2c(c1)S(=O)(=O)C=C2 [STATTIC]
effect on WFA-induced PD-L1 upregulation ([1]; WFA + inhibitor, 24 h, STATTIC: LLC, H1650, PX-478: LLC, brusatol: LLC, H1650, A549): neither STATTIC nor PX-478 were able to reverse

Brusatol
effect on WFA-induced PD-L1 upregulation [1]: completely abrogated

CC(=O)N[C@@H](CS)C(=O)O [NAC, N-acetyl cysteine, reference compound]
effect on WFA-induced ecto-CRT expression ([2]; WFA + 5 mM NAC): completely reversed
effect on WFA-mediated PD-L1 increase [2]: completely reversed
effect on WFA-mediated PD-L1 upregulation [3]: completely reversed
ROS levels [4]: reduced

N[C@@H](CCC(=O)N[C@@H](CS)C(=O)NCC(=O)O)C(=O)O [Glutathione, L-Glutathione]
effect on WFA-mediated PD-L1 increase [2]: abrogated
